Article PMC4900628, “Critical Evaluation of P2X7 Receptor Antagonists in Selected Seizure Models” (PLoS ONE, 2016)

Assays:
PTZ-induced kindling = PTZ-induced kindling development; format: in vivo, rats; details: for mean seizure stages after 8-day treatment-free interval (21st-25th PTZ-injection, vehicle only): rats formerly treated with TIIAS 30, BBG 50, AFC 30 mg/kg i.p. or JNJ 15 mg/kg s.c.; for mean number of PTZ-injections needed to produce the first generalized seizure (≥ stage 3) vs vehicle / effect on PTZ-kindling development (mean seizure stages): rats; for mean number of PTZ-injections needed to produce the first generalized seizure (≥ stage 3) vs vehicle: TIIAS 30, BBG 50, AFC 30 mg/kg i.p., JNJ 15 mg/kg s.c.; for effect on PTZ-kindling development (mean seizure stages): TIIAS 30 and BBG 50 mg/kg i.p. 45 min, AFC 30 mg/kg i.p. 45 min, JNJ 15 mg/kg s.c. 30 min before each PTZ 35 mg/kg i.p., every 48 h, 20 injections
Procedure: For PTZ-kindling, the initial sub-convulsive dose of PTZ (35 mg/kg) was injected i.p. once every 48 h (on Monday, Wednesday, and Friday, three times a week). After vehicle or vehicle/compound pre-treatment, PTZ was injected and the rats were individually observed for 30 min. Behavioural seizure responses were scored according to a defined graduation from stage 0 to stage 5. […] Rats received 20 successive PTZ-kindling stimulations. After an 8-day treatment-free interval, the animals were re-tested with PTZ (21st-25th injection) and vehicle pre-treatment without the compounds. […] Additional care was taken the hours following generalized tonic-clonic seizures and status epilepticus by providing the animals with soft food pellets and tap water if required. All efforts were made to minimize suffering. […] Chemicals, Toronto, Canada) was slowly added. The pH was adjusted with 1N NaOH (similar amount of NaOH as HCl), all with continuous stirring. […] The drug solutions or suspensions were prepared immediately before use; all doses refer to the salts. Animals in the control group received equivalent volumes of the vehicle (in mice always 10 ml/kg, in rats 1 ml/kg [JNJ], 3 ml/kg [AFC] or 4 ml/kg [BBG, TIIAS], depending on the solubility of the different compounds). Doses and peak time effects were selected on the basis of effective doses from corresponding in vivo studies in the literature: BBG (e.g.), tanshinone IIA (e.g.) and from manufacturer's experimental data: AFC, JNJ (see, [80]). Data were analysed using SigmaPlot (vers. 12.0, Systat Software, Erkrath, Germany) and SPSS (IBM SPSS Statistics 20, […], Germany), respectively. Results are expressed as mean ± SEM. […] In the MES-T, the current intensity inducing tonic hindlimb extensions in 50% of the mice (CC50 values with confidence limits for 95% probability) and the statistical significance was calculated using Probit analysis (SPSS). […] In the PTZ-T, the number of animals in the group with clonic seizures and the latency time were analysed using Fisher's exact probability test and the Mann-Whitney rank sum test, respectively. For multiple comparisons of the latency time a one-way ANOVA with the Holm-Sidak post hoc test was used. The influence of AFC on the plasma and brain concentrations of the antiepileptic drugs was statistical compared using the same procedure. In the PTZ-kindling model, the mean seizure stage within a group was calculated in relation to the number of PTZ-injections. Statistical comparison between vehicle- and compound-treated groups in this model was performed with two-way repeated measures ANOVA, followed by the Holm-Sidak post hoc test. The mean number of PTZ-injections needed to produce the first generalized seizure (≥ stage 3 convulsions) in the vehicle- versus compound-treated groups was statistically compared using a Mann-Whitney rank sum test. In fully kindled rats, the calculated mean seizure stage within a group after vehicle- and compound-treatment were compared using a paired t-test. P < 0.05 was the accepted minimum level of significance.

[1] = test system: PTZ-induced seizures in fully PTZ-kindled rats; experiment: PTZ-induced seizures in fully kindled rats; format: in vivo; details: for effect on mean seizure stage in fully kindled rats: TIIAS 30 mg/kg i.p., BBG 50 mg/kg i.p., AFC 25 mg/kg i.p., JNJ 30 mg/kg s.c., acute
Excerpt: Results were expressed as mean seizure stages of a tested group in which the seizure behaviour after vehicle treatment (vehicle seizure stage) and after compound treatment (compound seizure stage), examined 3-4 days later, was matched. For comparison, the effectiveness of two antiepileptic drugs (carbamazepine and valproate) was also investigated. […] Chemicals, Toronto, Canada) was slowly added. The pH was adjusted with 1N NaOH (similar amount of NaOH as HCl), all with continuous stirring. […] The drug solutions or suspensions were prepared immediately before use; all doses refer to the salts. Animals in the control group received equivalent volumes of the vehicle (in mice always 10 ml/kg, in rats 1 ml/kg [JNJ], 3 ml/kg [AFC] or 4 ml/kg [BBG, TIIAS], depending on the solubility of the different compounds). Doses and peak time effects were selected on the basis of effective doses from corresponding in vivo studies in the literature: BBG (e.g.), tanshinone IIA (e.g.) and from manufacturer's experimental data: AFC, JNJ (see, [80]). Data were analysed using SigmaPlot (vers. 12.0, Systat Software, Erkrath, Germany) and SPSS (IBM SPSS Statistics 20, […], Germany), respectively. Results are expressed as mean ± SEM. […] In the MES-T, the current intensity inducing tonic hindlimb extensions in 50% of the mice (CC50 values with confidence limits for 95% probability) and the statistical significance was calculated using Probit analysis (SPSS). […] In the PTZ-T, the number of animals in the group with clonic seizures and the latency time were analysed using Fisher's exact probability test and the Mann-Whitney rank sum test, respectively. For multiple comparisons of the latency time a one-way ANOVA with the Holm-Sidak post hoc test was used. The influence of AFC on the plasma and brain concentrations of the antiepileptic drugs was statistical compared using the same procedure. In the PTZ-kindling model, the mean seizure stage within a group was calculated in relation to the number of PTZ-injections. Statistical comparison between vehicle- and compound-treated groups in this model was performed with two-way repeated measures ANOVA, followed by the Holm-Sidak post hoc test. The mean number of PTZ-injections needed to produce the first generalized seizure (≥ stage 3 convulsions) in the vehicle- versus compound-treated groups was statistically compared using a Mann-Whitney rank sum test. In fully kindled rats, the calculated mean seizure stage within a group after vehicle- and compound-treatment were compared using a paired t-test. P < 0.05 was the accepted minimum level of significance.

Structure (SMILES)	mean seizure stages after 8-day treatment-free interval (21st-25th PTZ-injection, vehicle only) (PTZ-induced kindling)	mean number of PTZ-injections needed to produce the first generalized seizure (≥ stage 3) vs vehicle (PTZ-induced kindling)	effect on PTZ-kindling development (mean seizure stages) (PTZ-induced kindling)	effect on mean seizure stage in fully kindled rats [1]	mean seizure stage, post-drug ([1]; fully kindled rats, 15 mg/kg s.c., pre-drug (vehicle) value 4.4, significant)
CCOc1ccc(Nc2ccc(/C(=C3C=C/C(=[N+](/CC)Cc4cccc(S(=O)(=O)[O-])c4)C=C/3C)c3ccc(N(CC)Cc4cccc(S(=O)(=O)O)c4)cc3C)cc2)cc1 [Brilliant Blue G]	no differences of the mean seizure stages	required significantly more PTZ-injections	moderate, yet significant retarding effect on kindling development	tendency to reduce the mean seizure stage	–
O=C(NCC1(N2CCN(c3ccccc3)CC2)CCOCC1)c1cccnc1Sc1ccccc1 [JNJ-47965567, N-[[4-(4-phenyl-piperazin-1-yl)tetrahydro-2H-pyran-4-yl]-methyl]-2-(phenyl-thio) nicotinamide]	persisted after compound treatment ceased	required significantly more PTZ-injections	significantly reduced the PTZ-kindling development	tendency to reduce the mean seizure stage	2.9
Cc1c(S(=O)(=O)[O-])oc2c1C(=O)C(=O)c1c-2ccc2c1CCCC2(C)C.[Na+] [Tanshinone TIIAS, tanshinone IIS sulfonic sodium]	no differences of the mean seizure stages	required significantly more PTZ-injections	moderate, yet significant retarding effect on kindling development	tendency to reduce the mean seizure stage	–
